Source: US20250009763A1, “METHODS FOR EXTENDING LIFESPAN AND/OR DELAYING AGING” (priority 2023, published 2025)

Test system: yeast BY4741 (WT)
Assay: Micromanipulation assay of replicative lifespan (RLS)
Format: cell-based, Saccharomyces cerevisiae
Settings: 25 μM; FIG. 1F
Method: The micromanipulation of the yeast cells was carried out as follows. Prior to analysis, yeast strains BY4741 (WT), BY4741-fob1Δ (fob1Δ), or BY4741-sir2Δfob1Δ (sir2Δfob1Δ) were plated onto fresh solid YEPD medium and grown at 30° C. for two days. Then, individual colonies were picked and grown in solid YEPD media containing: (1) dimethyl sulfoxide (DMSO), (2) 10, 25, or 50 μM PN6, or (3) 25 μM β-sitosterol at 30° C. overnight, and a small number of yeast cells were then plated onto a fresh YEPD plate for lifespan analysis. After overnight growth on the lifespan plates, the cells were arrayed on the plate using a micromanipulator and allowed to grow for approximately 3 hours. Virgin daughter cells were selected and subjected to lifespan analysis. In the lifespan experiments, the plates were incubated at 30° C. during the day and stored at 4° C. overnight. Each experiment consisted of more than 50 mother cells and was independently repeated three times.

CC[C@H](CC[C@@H](C)[C@H]1CC[C@H]2[C@@H]3CC=C4C[C@@H](O)CC[C@]4(C)[C@H]3CC[C@]12C)C(C)C [3-sitosterol, β-sitosterol]
extension of the RLS of yeast: not seen
